Counter-ions that a name gives are not always drawn. Like-named read-outs stand apart in the source and are kept apart here.

Data set [1] addresses T1, Nav1.6 (Homo sapiens, UniProt Q9UQD0). Nature of the data set: % block of Nav1.6 at 100 μM and IC50 (NaV1.6). Format: cell-based. The following applies: for inhibition at 100 µM: 100 μM compound; for IC50: NaV1.6, Table 2, MV1060-MV1091, unit inferred, read-out: IC50. The procedure:
Evaluation of Compounds for % Block of Nav1.6 at 100 μM
Compounds of the present invention were tested in an assay for % block of Nav1.6 at a concentration of 100 μM compound. Table 1 also indicates the melting point ranges for some compounds.
Some such compounds correspond to a compound of Formula III, wherein R9 is substituted with a halogen, a nitro or a CF3 group. In comparing MV1089, MV1090 and MV1091, it is shown that compounds of Formula III where R3 is H result in higher % block than when R3 is substituted. e.g., by OCH3. In comparing MV1066, MV1084, MV1085, MV1086, MV1087 and MV1088, it is shown that compounds of Formula III where R9 is halogen, a nitro or a CF3 group result in higher % block than when R9 is OCH3, COOH or CH3.

The target in data set [2] is T1, Nav1.6. The data set can be described thus: High-throughput flux assay, Nav1.6.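 Also: IC50 from the flux assay.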 Format: cell-based. As to conditions: human isoform. Here is the method:
(§1) Evaluation of Compounds on Human Isoforms Using a High-Throughput Flux Assay
(§2) Compounds were tested using a high-throughput flux assay across Nav1.5, Nav1.6 and Nav1.7.

Data set [3] addresses T2, NaV1.5 (Homo sapiens, UniProt Q14524). Nature of the data set: High-throughput flux assay, NaV1.5.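 Also: IC50 from the flux assay.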 Format: cell-based. The following applies: human isoform. The procedure:
as §1, §2

Data set [4] concerns the target T3, NaV1.7 (Homo sapiens, UniProt Q15858). The data set can be described thus: High-throughput flux assay, NaV1.7.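 Also: IC50 from the flux assay.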 Type of data set: cell-based. As to conditions: human isoform. The procedure:
as §1, §2

Data set [5] addresses T1, Nav1.6. The data set can be described thus: Qube assay, NaV1.6. Type of data set: cell-based. As to conditions: human isoform; read-out: Qube EP IC50 NaV1.6. Here is the method:
(§3) Evaluation of Compounds on Human Isoforms Using Qube Assay.
(§4) Compounds were tested using a Qube assay across NaV1.5, NaV1.6 and NaV1.7.

Data set [6] deals with T2, NaV1.5. Nature of the data set: Qube assay, NaV1.5. Type of data set: cell-based. As to conditions: human isoform; read-out: Qube EP IC50 NaV1.5. The procedure:
as §3, §4

The target in data set [7] is T3, NaV1.7. Nature of the data set: Qube assay, NaV1.7. Format: cell-based. The following applies: human isoform; read-out: Qube EP IC50 NaV1.7. The procedure:
as §3, §4

For data set [8], the system named is maximal electroshock (MES) seizures. Nature of the data set: MES (maximal electroshock) test, mice. Type of data set: in vivo. The following applies: mice, IP, Table 14; for ED50: Mus musculus, read-out: MES ED50. From the text:
Evaluation of Compounds in MES Models of Seizures. […] These seizures are highly reproducible and are electrophysiologically consistent with human seizures. […] Abolition of the hindleg tonic extensor component of the seizure was used as the endpoint.
For orientation: Protection in the maximal electroshock model is a classic sign of anticonvulsant action.

Data set [9] deals with Metrazol-induced clonic seizures. Nature of the data set: scM (subcutaneous Metrazol) test, mice. Format: in vivo. As to conditions: mice, IP, Table 14; for ED50: Mus musculus, read-out: sCM ED50. The procedure: Evaluation of Compounds in scM Models of Seizures. Subcutaneous injection of the convulsant Metrazol produces clonic seizures in laboratory animals. […] Animals may be pretreated with various doses of the test compound given by ip injection. At a previously determined TPE (time to peak) of the test compound, the dose of Metrazol which will induce convulsions in 97% of animals (CD97:85 mg/kg mice) may be injected into a loose fold of skin in the midline of the neck. The animals may be placed in isolation cages to minimize stress and observed for the next 30 min for the presence or absence of a seizure. An episode of clonic spasms, approximately 3-5 seconds, of the fore and/or hindlimbs, jaws, or vibrissae may be taken as the endpoint. […] The scM test represents acute animal seizures.

The subject of data set [10] is 6 Hz psychomotor seizures. Nature of the data set: 6 Hz psychomotor seizure test, mice. Format: in vivo. As to conditions: IP; for 6 Hz (32 mA) ED50 / 6 Hz (14 mA) ED50: Table 14; for ED50: Mus musculus. The procedure:
Evaluation of Compounds in 6 Hz Pyschomotor Seizure Test
Compounds were tested using a 6 Hz psychomotor seizure test. […] For example, both the MES and scM models are insensitive to levetiracetam, a compound considered potentially useful in the management of refractory seizures. […] Thus, the 6 Hz test can serve as a therapy resistant screening paradigm of acute seizure activity.

Data set [11] concerns 6 Hz psychomotor seizures. The following applies: cited from earlier work.
Setting [12] is: 32 mA, Table 14, read-out: 6 Hz (32 mA) ED50.

T2 sequence (Q14524 whole entry, canonical isoform): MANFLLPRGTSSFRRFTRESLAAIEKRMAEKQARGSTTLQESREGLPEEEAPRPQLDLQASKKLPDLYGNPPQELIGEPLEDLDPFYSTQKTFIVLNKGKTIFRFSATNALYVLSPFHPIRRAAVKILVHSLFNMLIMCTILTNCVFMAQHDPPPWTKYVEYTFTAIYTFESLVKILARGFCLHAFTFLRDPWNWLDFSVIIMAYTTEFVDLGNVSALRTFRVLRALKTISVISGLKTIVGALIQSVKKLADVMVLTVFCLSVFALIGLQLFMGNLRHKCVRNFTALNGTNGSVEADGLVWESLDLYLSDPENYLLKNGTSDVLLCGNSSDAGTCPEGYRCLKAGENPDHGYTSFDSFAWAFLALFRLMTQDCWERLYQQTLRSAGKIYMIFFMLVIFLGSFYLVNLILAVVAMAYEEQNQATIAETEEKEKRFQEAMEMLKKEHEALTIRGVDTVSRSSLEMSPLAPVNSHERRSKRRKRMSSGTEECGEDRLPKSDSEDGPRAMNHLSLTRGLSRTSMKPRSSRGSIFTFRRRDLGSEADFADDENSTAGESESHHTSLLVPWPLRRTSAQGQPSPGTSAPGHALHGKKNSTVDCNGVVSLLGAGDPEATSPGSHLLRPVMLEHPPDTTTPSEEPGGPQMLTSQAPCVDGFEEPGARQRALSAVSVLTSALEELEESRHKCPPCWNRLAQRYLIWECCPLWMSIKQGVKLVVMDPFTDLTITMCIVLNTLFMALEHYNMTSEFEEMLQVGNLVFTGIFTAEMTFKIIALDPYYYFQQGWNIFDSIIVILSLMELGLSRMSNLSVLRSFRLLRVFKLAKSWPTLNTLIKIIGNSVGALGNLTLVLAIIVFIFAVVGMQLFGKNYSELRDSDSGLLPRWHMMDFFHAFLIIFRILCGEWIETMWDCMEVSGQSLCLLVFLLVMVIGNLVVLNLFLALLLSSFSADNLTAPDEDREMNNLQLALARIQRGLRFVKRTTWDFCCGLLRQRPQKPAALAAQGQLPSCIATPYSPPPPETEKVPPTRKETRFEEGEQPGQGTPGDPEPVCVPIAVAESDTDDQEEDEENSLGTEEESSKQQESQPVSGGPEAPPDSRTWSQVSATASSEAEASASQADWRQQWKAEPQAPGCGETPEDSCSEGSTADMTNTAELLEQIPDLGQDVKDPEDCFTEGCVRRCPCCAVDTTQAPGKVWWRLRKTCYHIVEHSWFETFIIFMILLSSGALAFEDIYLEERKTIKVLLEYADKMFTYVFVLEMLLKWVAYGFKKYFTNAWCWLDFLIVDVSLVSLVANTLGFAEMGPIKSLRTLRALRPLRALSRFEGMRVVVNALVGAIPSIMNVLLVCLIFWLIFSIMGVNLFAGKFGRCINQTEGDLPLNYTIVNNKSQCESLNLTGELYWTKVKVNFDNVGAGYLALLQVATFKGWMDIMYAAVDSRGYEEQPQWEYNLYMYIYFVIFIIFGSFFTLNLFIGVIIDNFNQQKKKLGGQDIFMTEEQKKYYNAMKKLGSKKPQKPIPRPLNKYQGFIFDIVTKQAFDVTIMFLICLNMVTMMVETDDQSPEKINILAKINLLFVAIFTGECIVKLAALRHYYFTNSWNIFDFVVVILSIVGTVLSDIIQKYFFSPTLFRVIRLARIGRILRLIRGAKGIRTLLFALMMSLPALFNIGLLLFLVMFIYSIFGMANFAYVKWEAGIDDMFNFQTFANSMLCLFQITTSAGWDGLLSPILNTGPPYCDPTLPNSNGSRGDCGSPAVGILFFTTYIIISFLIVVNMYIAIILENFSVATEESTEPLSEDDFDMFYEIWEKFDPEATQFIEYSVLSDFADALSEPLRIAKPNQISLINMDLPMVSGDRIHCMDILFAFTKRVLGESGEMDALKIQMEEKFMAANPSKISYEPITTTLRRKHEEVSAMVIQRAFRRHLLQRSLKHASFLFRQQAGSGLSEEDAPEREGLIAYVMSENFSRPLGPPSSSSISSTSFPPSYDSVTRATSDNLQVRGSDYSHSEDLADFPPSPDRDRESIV
T3 sequence (Q15858 whole entry, canonical isoform): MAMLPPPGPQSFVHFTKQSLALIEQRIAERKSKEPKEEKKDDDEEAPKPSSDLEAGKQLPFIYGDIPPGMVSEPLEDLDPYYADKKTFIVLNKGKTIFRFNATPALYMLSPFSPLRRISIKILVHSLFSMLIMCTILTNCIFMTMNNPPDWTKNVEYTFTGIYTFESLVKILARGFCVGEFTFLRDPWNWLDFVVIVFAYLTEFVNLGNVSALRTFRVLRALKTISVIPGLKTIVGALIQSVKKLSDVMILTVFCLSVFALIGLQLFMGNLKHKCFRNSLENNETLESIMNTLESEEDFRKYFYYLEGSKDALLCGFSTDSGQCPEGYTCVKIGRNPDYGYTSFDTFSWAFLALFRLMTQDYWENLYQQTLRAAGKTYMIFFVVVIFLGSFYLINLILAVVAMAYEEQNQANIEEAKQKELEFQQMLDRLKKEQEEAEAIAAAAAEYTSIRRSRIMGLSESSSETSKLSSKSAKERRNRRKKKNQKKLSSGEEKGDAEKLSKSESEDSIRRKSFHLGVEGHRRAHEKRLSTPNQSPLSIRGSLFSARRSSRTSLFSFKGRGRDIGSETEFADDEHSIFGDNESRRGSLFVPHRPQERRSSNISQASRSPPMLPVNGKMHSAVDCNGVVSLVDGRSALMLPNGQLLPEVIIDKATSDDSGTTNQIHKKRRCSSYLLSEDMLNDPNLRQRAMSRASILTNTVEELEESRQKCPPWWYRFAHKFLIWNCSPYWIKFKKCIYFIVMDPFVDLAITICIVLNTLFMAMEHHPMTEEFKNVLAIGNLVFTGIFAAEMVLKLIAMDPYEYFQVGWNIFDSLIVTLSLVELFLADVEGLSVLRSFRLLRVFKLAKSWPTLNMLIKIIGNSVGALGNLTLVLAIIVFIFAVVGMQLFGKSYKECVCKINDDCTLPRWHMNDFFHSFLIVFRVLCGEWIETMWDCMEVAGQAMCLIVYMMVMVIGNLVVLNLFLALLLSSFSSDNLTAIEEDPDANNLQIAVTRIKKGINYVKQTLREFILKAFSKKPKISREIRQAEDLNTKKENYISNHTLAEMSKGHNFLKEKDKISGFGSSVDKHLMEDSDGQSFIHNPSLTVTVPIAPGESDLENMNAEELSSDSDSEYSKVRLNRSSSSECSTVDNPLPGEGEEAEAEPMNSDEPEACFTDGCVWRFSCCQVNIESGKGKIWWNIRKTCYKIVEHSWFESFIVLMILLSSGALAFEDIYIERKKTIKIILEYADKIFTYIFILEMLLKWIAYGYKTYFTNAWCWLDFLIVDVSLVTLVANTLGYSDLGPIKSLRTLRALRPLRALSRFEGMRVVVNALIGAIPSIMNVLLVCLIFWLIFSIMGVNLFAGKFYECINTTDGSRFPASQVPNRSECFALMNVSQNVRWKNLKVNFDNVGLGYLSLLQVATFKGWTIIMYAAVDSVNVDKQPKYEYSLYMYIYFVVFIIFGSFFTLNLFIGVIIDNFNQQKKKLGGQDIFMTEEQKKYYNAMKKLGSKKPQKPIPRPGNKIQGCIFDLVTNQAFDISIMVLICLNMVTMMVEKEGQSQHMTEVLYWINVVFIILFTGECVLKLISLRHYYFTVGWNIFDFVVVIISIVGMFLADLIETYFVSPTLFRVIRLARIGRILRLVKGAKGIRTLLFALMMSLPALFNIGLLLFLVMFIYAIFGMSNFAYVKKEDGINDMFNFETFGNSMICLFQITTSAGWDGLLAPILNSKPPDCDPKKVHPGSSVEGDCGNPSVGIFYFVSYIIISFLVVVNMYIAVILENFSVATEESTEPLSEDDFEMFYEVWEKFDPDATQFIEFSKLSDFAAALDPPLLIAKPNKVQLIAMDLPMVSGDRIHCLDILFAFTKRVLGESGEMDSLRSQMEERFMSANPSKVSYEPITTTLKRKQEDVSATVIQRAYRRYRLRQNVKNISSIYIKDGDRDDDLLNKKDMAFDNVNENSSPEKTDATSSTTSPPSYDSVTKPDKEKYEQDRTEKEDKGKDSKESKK

A word on the inhibition: it is the percentage by which the read-out fell short of the control. A higher inhibition goes with a response far below the control. A word on the IC50: it is the midpoint of a concentration-inhibition curve. At Nav1.6 [1], `COc1ccc(-c2nc(C)c(-c3ccccc3)[nH]2)cc1` [MV1501, 2-(4-methoxyphenyl)-4-methyl-5-phenyl-1H-imidazole hydrochloride] showed an inhibition at 100 µM of 90%. Further, the 50% inhibitory concentration (IC50) at Nav1.6 [2] stood at 2.74 µM; on NaV1.5 [3], 6.24 µM; at NaV1.7 [4], 7.98 µM; at Nav1.6 [5], 7.43 µM; at NaV1.5 [6] it was 27 µM; on NaV1.7 [7], 14.8 µM.

As to `CC(=O)Nc1ccc(-c2nc(C)c(-c3ccccc3)[nH]2)cc1` [MV1509, N-2,4-[3-methyl-4-phenyl-1H-imidazol-2-yl)phenyl]acetamide hydrochloride], the inhibition at 100 µM against Nav1.6 [1] stood at 90%. Also, the concentration for half-maximal inhibition (IC50) on Nav1.6 [2] was found to be 5.67 µM; on NaV1.5 [3], 7.94 µM; at NaV1.7 [4], 23.8 µM; at Nav1.6 [5] it was 8.24 µM; at NaV1.5 [6], 15.9 µM; at NaV1.7 [7], 30 µM.

One may read the ED50 as the dose at which the effect has come halfway, by size or by number of responders. In the case of `NC(=O)N1c2ccccc2C=Cc2ccccc21` [Carbamazepine, reference compound], the ED50 in [8] was determined as 7.8 mg/kg. The “sCM ED50” value in [9] was “None”. Further, the “6 Hz (32 mA) ED50” value in data set [10] (32 mA) is listed as “None”. Moreover, the “6 Hz (14 mA) ED50” value in data set [10] ((14 mA) [sic]) is “None”. The “TOX (TD50)” value in the data set with mice (mice, IP, Table 14) was 45.5 mg/kg.

With `CCCC(CCC)C(=O)O` [Valproic Acid, reference compound], the median effective dose (ED50) in [8] is 263 mg/kg; in data set [9] it was 220 mg/kg; in data set [10] (setting [12]), 126 mg/kg; in data set [10] ((14 mA) [sic], Table 14, read-out: 6 Hz (14 mA) ED50) it was 310 mg/kg. Besides, in data set [11] (44 mA), the “activity in 6 Hz test” value is reported as “need higher doses”.

Turning to `O=C1NC(=O)C(c2ccccc2)(c2ccccc2)N1` [Phenytoin, reference compound], in data set [9], the “sCM ED50” value is on record as “None”. In data set [10] (32 mA), the “6 Hz (32 mA) ED50” value was “None”. Besides, in [10] ((14 mA) [sic]), the “6 Hz (14 mA) ED50” value is reported as “None”. In addition, the “activity in 6 Hz test” value in [11] (32 mA) is “lose activity”.

Regarding `CCC1(C)CC(=O)NC1=O` (stereo not drawn) [Ethosuximide, reference compound], the “MES ED50” value in [8] is recorded as “None”. The results for the ED50 in data set [9] and in [10] (setting [12]) were 136 mg/kg and 167 mg/kg, respectively. In addition, the “6 Hz (14 mA) ED50” value in [10] ((14 mA) [sic]) is recorded as “None”. Further, in the data set on mice (mouse, in vivo, ip), the “TOX (TD50)” value is on record as 341 mg/kg. The “activity in 6 Hz test” value in data set [11] (44 mA) is on record as “ineffective”.

`CC[C@@H](C(N)=O)N1CCCC1=O` [levetiracetam]: the “activity in 6 Hz test” value in data set [11] (44 mA) is “need higher doses”.

As for `Nc1nnc(-c2cccc(Cl)c2Cl)c(N)n1` [Lamotrigine, reference compound], the ED50 in data set [8] was 7.5 mg/kg. Besides, in data set [9], the “sCM ED50” value is on record as “None”. Further, the “6 Hz (32 mA) ED50” value in data set [10] (32 mA) is on record as “None”. Also, the “6 Hz (14 mA) ED50” value in data set [10] ((14 mA) [sic]) is on record as “None”. Besides, the “activity in 6 Hz test” value in data set [11] (32 mA) is reported as “lose activity”.

On to `COc1ccc(C(=O)Nc2ccc(-c3c[nH]c(-c4ccccc4)n3)cc2)cc1` [MV1303, 4-METHOXY-N-[4-[2-PHENYL-1H-IMIDAZOL-4-YL]-PHENYL]-BENZAMIDE HYDROCHLORIDE], for which, at Nav1.6 [1], at 100 µM the inhibition was 0%.

On to `O=[N+]([O-])c1cccc(-c2nc3ccccc3[nH]2)c1` [MV1071, 2-(3-nitrophenyl)-1H-1,3-benzodiazole], for which, on Nav1.6 [1], at 100 µM the inhibition was 30% and the concentration for half-maximal inhibition (IC50) was greater than 100 µM.

At Nav1.6 [1], `COc1ccc(-c2nc(-c3cccc(NC(=O)c4ccccc4)c3)c[nH]2)cc1` [MV1308, N-(3-[2-(4-METHOXY-PHENYL)-1H-IMIDAZOL-4-YL]-PHENYL)-BENZAMIDE HYDROCHLORIDE] showed an inhibition at 100 µM of 75%.

Turning to `COc1ccccc1-c1nc2ccccc2[nH]1` [MV1073, 2-(2-methoxyphenyl)-1H-1,3-benzodiazole], at Nav1.6 [1], 100 µM produced 40% inhibition and the IC50 was greater than 100 µM.

The molecule `COc1ccc(C(=O)Nc2ccc(-c3c[nH]c(-c4ccc(OC)cc4)n3)cc2)cc1` [MV1304, 4-METHOXY-N-(4-[2-(4-METHOXY-PHENYL)-1H-IMIDAZOL-4-YL]-PHENYL)-BENZAMIDE HYDROCHLORIDE] yielded an inhibition at 100 µM against Nav1.6 [1] of 40%.

Take `FC(F)(F)c1ccccc1-c1nc2ccccc2[nH]1` [MV1075, 2-(2-trifluoromethyl-phenyl)-1H-1,3-benzodiazole]: at Nav1.6 [1], the inhibition at 100 µM came to 20% and the IC50 is greater than 100 µM.

In the case of `COc1ccc(-c2nc(C)c(-c3ccccc3)[nH]2)cc1O` [MV1508, 2-methoxy-5-(5-methyl-4-phenyl-1H-imidazol-2-yl)phenol hydrochloride], the inhibition at 100 µM against Nav1.6 [1] turned out to be 90%. In addition, the 50% inhibitory concentration (IC50) worked out at 1.88 µM against Nav1.6 [2]; 2.61 µM against NaV1.5 [3]; 4.58 µM on NaV1.7 [4]; 3.99 µM at Nav1.6 [5]; 11.9 µM at NaV1.5 [6]; 11.5 µM at NaV1.7 [7].

As to `CCCc1nc(-c2ccc(Cl)cc2)[nH]c1C` [MV1371, 2-(4-CHLORO-PHENYL)-5-METHYL-4-PROPYL-1H-IMIDAZOLE OXALATE], on Nav1.6 [1], testing at 100 µM gave an inhibition of 100%.

`O=C(Nc1cccc(-c2c[nH]c(-c3ccccc3)n2)c1)c1ccccc1` [MV1307, N-[3-(2-PHENYL-1H-IMIDAZOL-4-YL)-PHENYL]-BENZAMIDE HYDROCHLORIDE]: at Nav1.6 [1], the inhibition at 100 µM came to 25%.

In the case of `FC(F)(F)c1ccc(-c2nc3ccccc3[nH]2)cc1` [MV1077, 2-(4-trifluoromethyl-phenyl)-1H-1,3-benzodiazole], at Nav1.6 [1], 100 µM produced 15% inhibition and the 50% inhibitory concentration (IC50) was greater than 100 µM.

With `O=C(Nc1ccc(-c2c[nH]c(-c3ccccc3)n2)cc1)c1ccccc1` [MV1301, N-(4-[2-PHENYL-1H-IMIDAZOL-4-YL)-PHENYL]-BENZAMIDE HYDROCHLORIDE], the inhibition at 100 µM on Nav1.6 [1] came out at 0%.

`COc1ccc(C(=O)Nc2cccc(-c3c[nH]c(-c4ccc(OC)cc4)n3)c2)cc1` [MV1310, 4-METHOXY-N-(3-[2-(4-METHOXY-PHENYL)-1H-IMIDAZOL-A-YL]-PHENYL)-BENZAMIDE HYDROCHLORIDE]: the inhibition at 100 µM on Nav1.6 [1] is 60%.

As to `FC(F)(F)c1cccc(-c2nc3ccccc3[nH]2)c1` [MV1076, 2-(3-trifluoromethyl-phenyl)-1H-1,3-benzodiazole], the inhibition at 100 µM against Nav1.6 [1] is 60%.

The values are drawn from patent US12403128B2, “Compositions and methods for blocking sodium channels” (University of Virginia Patent Foundation, priority 2017, dated 2025).
